One data set addresses HIV-1 CN54 gp120. Put plainly: Surface plasmon resonance screening of phenylboronic acid ligands with HIV gp120. Format: binding. The settings on record: SPR, 25° C., 1:1 interaction model, pH 5.5 / 7.5 / 9.5 buffers. As for the experimental part:
Two commercially available functionalized phenylboronic acids (Frontier Scientific, Logan Utah) were screened to compare the effect of electron withdrawing substituents (2,5-difluorophenylboronic acid, 1, FIG. 3a), versus a ortho-hydroxymethyl substituent (2-hydroxymethylphenylboronic acid, 2, FIG. 3a) prepared at 50 mM concentrations in 25 mM buffers at the appropriate pH (pH 5.5 acetate buffer, pH 7.5 phosphate buffer, and pH 9.5 carbonate buffer). HIV-1 CN54 gp120 with a molecular weight of 130 kDa was obtained from the NIH AIDS Research and Reference Reagent Program (Division of AIDS, NIH). CN54 gp120 was attached to a CM4 sensor chip using standard amine coupling chemistry with a density of 10,000 RU. […] Affinity for the gp120 functionalized surface was determined by comparing raw data to three reference cells: two of the unactivated CM4 surfaces, and an activated CM4 surface capped completely by ethanolamine. […] The association and dissociation phases were monitored for 1-3 min and 3-10 min respectively. Data was fitted to a 1:1 interaction model and the apparent affinity, KD, was determined using Scrubber II software. […]
Binding affinities in the presence of the seminal component fructose were also analyzed. […]
(Surface plasmon resonance follows binding to a sensor surface in real time, without labels.)

The nature of data set [1]: Solubility of ligand in buffer for SPR. Format: physicochemical. The settings on record: pH 5.5. As to the method: (§1) Two commercially available functionalized phenylboronic acids (Frontier Scientific, Logan Utah) were screened to compare the effect of electron withdrawing substituents (2,5-difluorophenylboronic acid, 1, FIG. 3a), versus a ortho-hydroxymethyl substituent (2-hydroxymethylphenylboronic acid, 2, FIG. 3a) prepared at 50 mM concentrations in 25 mM buffers at the appropriate pH (pH 5.5 acetate buffer, pH 7.5 phosphate buffer, and pH 9.5 carbonate buffer). HIV-1 CN54 gp120 with a molecular weight of 130 kDa was obtained from the NIH AIDS Research and Reference Reagent Program (Division of AIDS, NIH). CN54 gp120 was attached to a CM4 sensor chip using standard amine coupling chemistry with a density of 10,000 RU. Briefly, using HBS-P as the running buffer, the carboxymethyl dextran surface of a surface Plasmon resonance (SPR) chip (CM4 chip, Biacore) was activated with an injection of a 1:1 ratio of 0.4M 1-ethyl-3-(3-dimethylaminopropyl)carbodiimide hydrochloride (EDC)/0.1M N-hydroxysuccinimide (NHS). CN54 gp120 in 10 mM sodium acetate (pH 5.5) was then coupled to the surface. The remaining activated groups were then blocked by an injection of 1M ethanolamine (pH 8.5).

Data set [2] is described as follows: SPR reference surface (nonfunctionalized dextran). The settings on record: pH 7.5, raw SPR data. Format: binding. As to the method:
as §1

Data on two compounds can be found in patent publication US20130164249A1, “COMPOSITIONS AND METHODS FOR INHIBITING VIRAL AND BACTERIAL ACTIVITY” (priority 2007, published 2013).

Each structure is given as a SMILES string.

Consider `OCc1ccccc1B(O)O` [compound 2, 2-hydroxymethylphenylboronic acid], for which the “apparent affinity, KD, to gp120 functionalized surface” value on HIV-1 CN54 gp120 is on record as “slightly higher affinity compared to the more acidic 1”. Besides, in data set [1], the solubility entry was “not soluble”. Turning to `OB(O)c1cc(F)ccc1F` [compound 1, 2,5-difluorophenylboronic acid], the “binding to nonfunctionalized dextran surface” value in data set [2] is reported as “no binding”.
